Measurements reported in patent US12285012B2, “Compositions comprising pyridine carboxylate herbicides with acetolactate synthase (ALS) inhibitor herbicides” (Corteva Agriscience LLC, priority 2018, dated 2025).

Experiments:
Assay in all cases: Greenhouse postemergence herbicidal effect
Format in all cases: in vivo
[1] = test system: Italian ryegrass (LOLMU, Lolium multiflorum); conditions: Compound A 10 g/ha; safener mefenpyr-diethyl
Summary of the method: (§1)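 Plants at second or third true leaf stage, greenhouse-grown (~14 h photoperiod, about 23/22° C), sprayed at 187 L/ha with pyridine carboxylate herbicide (g ae/ha; with cloquintocet-mexyl safener unless noted) alone or plus ALS herbicide (g ai/ha) in 1.25% v/v oil adjuvant. Visual injury, 0 to 100% versus solvent-blank controls, after 20-22 d.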

[2] = test system: blackgrass (ALOMY, Alopecurus myosuroides); conditions: Compound A 10 g/ha; safener mefenpyr-diethyl
Summary of the method: as §1

[3] = test system: giant foxtail (SETFA, Setaria faberi)
Summary of the method: as §1

[4] = test system: grain sorghum (SORVU, Sorghum vulgare); conditions: Compound A 10 g/ha
Summary of the method: as §1

[5] = test system: nutsedge (CYPES, Cyperus esculentus)
Summary of the method: as §1

[6] = test system: poinsettia (EPHHL, Euphorbia heterophylla)
Summary of the method: as §1

[7] = test system: small-flower flatsedge (CYPDI, Cyperus difformis); conditions: Compound A 10 g/ha
Summary of the method: as §1

[8] = test system: wild oat (AVEFA, Avena fatua)
Summary of the method: as §1

[9] = Compound A 10 g/ha, safener mefenpyr-diethyl

How did the “% visual injury, Obs” value [1] turn out when N#CCOC(=O)c1nc(-c2ccc3cc[nH]c3c2F)c(F)c(N)c1Cl [Compound A, cyanomethyl 4-amino-3-chloro-5-fluoro-6-(7-fluoro-1H-indol-6-yl)pyridine-2-carboxylate] was run?
Its value is 10%.

What about the “LOLMU % visual injury Obs” value [1] of the same compound?
The value was 10%.

And the “% visual injury, Obs” value [2]?
The value was 13%.

And the “ALOMY % visual injury Obs” value [2]?
The value was 13%.

And the “% visual injury, Obs” value ([3]; 10 g/ha)?
Its value is 0%.

What about the “% visual injury, Obs” value [3, 9] of the same compound?
The value was 80%.

What about the “SETFA % visual injury Obs” value [3, 9] of the same compound?
The value was 80%.

And the “% visual injury” value [4]?
Its value is 0%.

And the “% visual injury, Obs” value ([4]; safener mefenpyr-diethyl)?
Its value is 10%.

What about the “SORVU % visual injury Obs” value ([4]; safener mefenpyr-diethyl) of the same compound?
Its value is 10%.

What about the “% visual injury, Obs” value ([5]; 10 g/ha) of the same compound?
Its value is 45%.

What about the “% visual injury” value ([5]; Compound A 10 g/ha) of the same compound?
Its value is 8%.

And the “% visual injury, Obs” value [5, 9]?
Its value is 28%.

And the “CYPES % visual injury Obs” value [5, 9]?
The value was 28%.

And the “% visual injury, Obs” value ([6]; 10 g/ha)?
Its value is 83%.

What about the “% visual injury” value ([6]; Compound A 10 g/ha) of the same compound?
The value was 97%.

What about the “% visual injury Obs” value [7] of the same compound?
The value was 72%.

What about the “% visual injury, Obs” value ([8]; 10 g/ha) of the same compound?
Its value is 0%.

And the “% visual injury, Obs” value [8, 9]?
The value was 0%.

What about the “AVEFA % visual injury Obs” value [8, 9] of the same compound?
Its value is 0%.
